According to patent US10420745B2 (priority 2015, dated 2019):

Legend:
Clostridia perfringens = type: cell-based; conditions: minimum inhibitory concentration towards Clostridia perfringens, in vitro
[1] = system: Clostridium perfringens-induced necrotic enteritis; type: in vivo, broiler chicken; conditions: Ross 308 broilers, lower concentration in feed (2.5/2/1.5 kg/ton weeks 1/2/3), adsorbed on silica carrier, C. perfringens challenge days 17-20, scoring day 21; positive control 71%

Work on `CCC(=O)OCC(O)CO` (stereo not shown) [Glyceryl monopropionate] yielded an MIC (Clostridia perfringens) of 250 mmol.

For `CCC(=O)O` [Propionic acid], the MIC (Clostridia perfringens) was 62 mmol.

For `CCCCC(=O)OCC(O)CO` (stereo not shown) [Glyceryl monovalerate], the MIC (Clostridia perfringens) was 15 mmol and the “animals within the group diagnosed as necrotic enteritis positive (macroscopic lesion score ≥2)” value [1] was 27%.

Molecule `CCCC(=O)OCC(O)CO` (stereo not shown) [Glyceryl monobutyrate] has an MIC (Clostridia perfringens) of 125 mmol.

`CCCCC(=O)O` [Valeric acid] gave an MIC (Clostridia perfringens) of 15 mmol.

Work on `CCCC(=O)O` [Butyric acid] yielded an MIC (Clostridia perfringens) of 62 mmol.
